Experimental data reported in paper PMC8698759, “Gold(I) Complexes Bearing Alkylated 1,3,5-Triaza-7-phosphaadamantane Ligands as Thermoresponsive Anticancer Agents in Human Colon Cells” (Biomedicines, 2021).
Where two headings read alike, the source gives them in different places.

What was measured:
Assay type in all cases: cell-based, human
Caco-2/TC7 cells = assay: MTT cytotoxicity / antiproliferative assay on Caco-2/TC7 cells
Experimental: Human fibroblast cells were kindly provided by Dr. Julio Montoya (Unidad de Bioquímica, Facultad de Veterinaria, Universidad de Zaragoza, Spain). Caco-2 cells (passages 40–70) and fibroblasts (passages 10–30) were maintained in a humidified atmosphere of 5% CO2 at 37 °C. Cells were grown in Dulbecco’s Modified Eagles medium (DMEM) (Gibco Invitrogen, Paisley, UK) supplemented with 20% fetal bovine serum (FBS), 1% non-essential amino acids, 1% penicillin (1000 U/mL), 1% streptomycin (1000 μg/mL) and 1% amphotericin (250 U/mL). […] Caco-2 cells were sub-cultured on 25 cm^2 plastic flasks at a density of 1.2 × 10^4 cells/cm^2, while fibroblasts were sub-cultured on 75 cm^2 plastic flasks at a density of 1 × 10^4 cells/cm^2. Culture medium was replaced every 2 days.
Gold complex was diluted in dimethyl sulfoxide (DMSO) to a stock solution at 20 mM and then re-diluted to a working solution at 2.5 mM before diluting it in cell culture medium to treat cells at desired concentrations.
The influence of hyperthermia was studied by incubating cells at 40 °C for 1 h immediately after treating them with the gold complexes.
For cytotoxicity screening assays, Caco-2 cells were seeded in 96-well plates at a density of 4 × 10^3 cells/well. Culture medium was replaced with medium containing drug panel 24 h post-seeding and cells were incubated for 72 h. In fibroblasts, culture medium containing metal gold complexes was added 10 days post-seeding. Antiproliferative effect was measured with MTT assay as previously described by Mármol et al.. […] To determine the selectivity index (SI) the IC50 value in fibroblasts was divided by IC50 value in Caco-2, obtaining a ratio cancerous/normal cells toxicity.

[1] = system: caspase-3 in Caco-2 cells; assay: Determination of active caspase-3 by flow cytometry; details: Caco-2, 48 h; 3a 5.0 µM, 3b 10.2 µM
Experimental: (§1) Caco-2 cells were seeded in 75 cm^2 flask at a density of 1 × 10^4 cells/cm^2 and, 24 h later, exposed to drug panel for 48 h. Then cells were collected and processed following instructions by Sánchez-de-Diego et al. Finally, 50 µL of every sample were incubated with 5 µL anti-active caspase-3 (BD Pharmigen, Clone C92-605) and 5 µL p53 antibody (Miltenyi, Clone REA609).

p53 in Caco-2 cells = assay: Determination of p53 by flow cytometry; details: Caco-2, 48 h, versus non-treated cells
Experimental: as §1

[2] = 37 °C values rounded, read-out: IC50 values in Caco-2
[3] = 72 h, MTT, 37 °C, mean ± SE, read-out: IC50 Caco-2/TC7 37 °C
[4] = read-out: IC50 Caco-2/TC7 40 °C, 72 h, MTT, 1 h at 40 °C immediately after treatment (hyperthermia), mean ± SE

| Compound | IC50 (Caco-2/TC7 cells; [2]) [µM] | IC50 (Caco-2/TC7 cells; [3]) [µM] | IC50 (Caco-2/TC7 cells; [4]) [µM] | caspase-3 activation (cells with active caspase-3) [1] | p53 accumulation (p53 in Caco-2 cells) |
| --- | --- | --- | --- | --- | --- |
| CCCCCCCC[N+]12CN3CN(C1)C[P+]([Au-][S]c1ccccn1)(C3)C2.[I-] [Complex 3a, [Au(C5H5NS)(PTA-CH2(CH2)6CH3)]I] | 2.5 | 2.49 ± 0.31 | 2.05 ± 0.32 | could induce caspase-3 activation | could induce p53 accumulation |
| FC(F)(F)C(F)(F)C(F)(F)C(F)(F)C(F)(F)C(F)(F)CC[N+]12CN3CN(C1)C[P+]([Au-][S]c1ccccn1)(C3)C2.O=S(=O)([O-])C(F)(F)F [Complex 3b, [Au(C5H5NS)(PTA-CH2CH2(CF2)5CF3)](TfO)] | 5.1 | 5.11 ± 1.25 | 4.26 ± 0.34 | could induce caspase-3 activation | could induce p53 accumulation |
